Results: PubChem BioAssay AID1963973 (Molecular Pharmacology Branch, DTP, NCI, 2024)

Test system: 883617-216-R-J1-PDC tumor spheroids, viability
Test: Anticancer human tumor 883617-216-R-J1-PDC patient-derived bladder carcinoma cell line growth inhibition [PI3K]
Settings: spheroids with HUVEC and MSC; for IC50: curve of first compound; for viability, T/C: stronger effect = lower value
Summary of the method: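 Targeted small molecules plus PI3K inhibitors, half-log dose series from Cmax (default top 10 microM), were applied to heterotypic spheroids of cancer cells with HUVEC and MSCs. Viability indicated growth inhibition.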
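Further: spheroids exposed to agents for 7 days before the viability read.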

C[C@@H](NC(=O)c1ncnc(N)c1Cl)c1ncc(C(=O)Nc2cc(C(F)(F)F)c(Cl)cn2)s1 + COc1c(OCCCN2CCOCC2)ccc2c3n(c(=NC(=O)c4cnc(N)nc4)nc12)CCN3
IC50 (second compound 0.00316 µM): > 10000 nM
IC50 (second compound 0.01 µM): > 10000 nM
IC50 (second compound 0.0316 µM): < 31.6 nM
IC50 (second compound 0.1 µM): < 31.6 nM
IC50 (second compound 0.316 µM): < 31.6 nM
IC50 (second compound 1 µM): < 31.6 nM
viability, T/C (second compound 0.00316 µM, first compound 0.0316 µM): 86.2%
viability, T/C (second compound 0.00316 µM, first compound 0.1 µM): 83.1%
viability, T/C (second compound 0.00316 µM, first compound 0.316 µM): 86.1%
viability, T/C (second compound 0.00316 µM, first compound 1 µM): 96%
viability, T/C (second compound 0.00316 µM, first compound 3.16 µM): 70.9%
viability, T/C (second compound 0.00316 µM, first compound 10 µM): 59.9%
viability, T/C (second compound 0.01 µM, first compound 0.0316 µM): 88.2%
viability, T/C (second compound 0.01 µM, first compound 0.1 µM): 71.5%
viability, T/C (second compound 0.01 µM, first compound 0.316 µM): 72.5%
viability, T/C (second compound 0.01 µM, first compound 1 µM): 87.5%
viability, T/C (second compound 0.01 µM, first compound 3.16 µM): 71.5%
viability, T/C (second compound 0.01 µM, first compound 10 µM): 56.6%
viability, T/C (second compound 0.0316 µM, first compound 0.0316 µM): 38.3%
viability, T/C (second compound 0.0316 µM, first compound 0.1 µM): 41.2%
viability, T/C (second compound 0.0316 µM, first compound 0.316 µM): 42.1%
viability, T/C (second compound 0.0316 µM, first compound 1 µM): 50.4%
viability, T/C (second compound 0.0316 µM, first compound 3.16 µM): 40.8%
viability, T/C (second compound 0.0316 µM, first compound 10 µM): 30.9%
viability, T/C (second compound 0.1 µM, first compound 0.0316 µM): 19%
viability, T/C (second compound 0.1 µM, first compound 0.1 µM): 20.6%
viability, T/C (second compound 0.1 µM, first compound 0.316 µM): 23.1%
viability, T/C (second compound 0.1 µM, first compound 1 µM): 22%
viability, T/C (second compound 0.1 µM, first compound 3.16 µM): 20.5%
viability, T/C (second compound 0.1 µM, first compound 10 µM): 14.5%
viability, T/C (second compound 0.316 µM, first compound 0.0316 µM): 7.26%
viability, T/C (second compound 0.316 µM, first compound 0.1 µM): 7.17%
viability, T/C (second compound 0.316 µM, first compound 0.316 µM): 7.53%
viability, T/C (second compound 0.316 µM, first compound 1 µM): 7.56%
viability, T/C (second compound 0.316 µM, first compound 3.16 µM): 9.7%
viability, T/C (second compound 0.316 µM, first compound 10 µM): 5.01%
viability, T/C (second compound 1 µM, first compound 0.0316 µM): 5.51%
viability, T/C (second compound 1 µM, first compound 0.1 µM): 5.13%
viability, T/C (second compound 1 µM, first compound 0.316 µM): 5.48%
viability, T/C (second compound 1 µM, first compound 1 µM): 5.61%
viability, T/C (second compound 1 µM, first compound 3.16 µM): 5.29%
viability, T/C (second compound 1 µM, first compound 10 µM): 2.13%
